17 compounds from patent publication US8962627B2, “Oxime derivatives and their use as allosteric modulators of metabotropic glutamate receptors” (Prestwick Chemical, Inc., priority 2009, dated 2015) can be followed below.

Structures can show the parent of a compound that is named as a salt. Some results are limits rather than exact numbers.

In general, melting point refers to the temperature of the solid-liquid transition.

As to `ON=c1cc(-c2cc3c(cn2)ncn3Cc2ccccc2)oc2ccccc12` [Example 68, 2-(1-Benzyl-1H-imidazo[4,5-c]pyridin-6-yl)-chromen-4-one oxime], the melting point lay in the range of 148 to 150 °C.
`ON=c1cc(-c2cc3ccc(F)cc3cn2)oc2ccccc12` [Example 12, 2-(7-fluoro-isoquinolin-3-yl)-chromen-4-one oxime] had a melting point of 233 to 235 °C.
On to `ON=c1cc(-c2cc3ccccc3cn2)oc2c(F)cc(F)cc12` [Example 7, 6,8-difluoro-2-isoquinolin-3-yl-chromen-4-one oxime], for which the melting point was in the range of 253 to 256 °C.
Compound `COc1cc2cnc(-c3cc(=NO)c4ccccc4o3)cc2cc1OC` [Example 14, 2-(6,7-dimethoxy-isoquinolin-3-yl)-chromen-4-one oxime] yielded a melting point of 266 to 269 °C.
On to `Cc1cc(C)n2cnc(-c3cc(=NO)c4ccccc4o3)cc12` [Example 64, 2-(5,7-dimethyl-Pyrrolo[1,2-c]pyrimidin-3-yl)-chromen-4-one oxime], for which the melting point is > 250 °C (dec.).
For `CN(C)c1ccc(C#Cc2ccc3c(=NO)cc(-c4cc5ccccc5cn4)oc3c2)cc1` [Example 27, 7-(4-dimethylaminophenyl)ethynyl-2-isoquinolin-3-yl-chromen-4-one oxime], the melting point was 235 to 240 °C.
The figure for `CCN1CCN(CCOc2ccc3oc(-c4cc5cccn5cn4)cc(=NO)c3c2)CC1.Cl.Cl` [Example 121] is > 240 °C (dec.); for `O=c1[nH]c(-c2c/c(=N\O)c3ccccc3o2)cc2ccccc12` [Example 72, 3-{4-[(E)-Hydroxyimino]-4H-chromen-2-yl}-2H-isoquinolin-1-one] it is 310 to 315 °C (dec.); for `CN1CCN(CCCNc2ccc3c(=NO)cc(-c4cc5ccccc5cn4)oc3c2)CC1` [Example 49, 2-isoquinolin-3-yl-7-[3-(4-methyl-piperazin-1-yl)-propylamino]-chromen-4-one oxime] it is 228 to 233 °C.
As to `Cl.O=S1(=O)CCN(CCOc2ccc3oc(-c4cc5sccc5cn4)cc(=NO)c3c2)CC1`, the melting point was in the range of 195 to 197 °C.
Compound `ON=c1cc(-c2cc3cccn3cn2)oc2ccc(OCCc3ccc(F)cc3)cc12` (as salt: hydrochloride) [Example 109, 6-[2-(4-fluoro-phenyl)-ethoxy]-2-pyrrolo[1,2-c]pyrimidin-3-yl-chromen-4-one oxime, hydrochloride] returned a melting point of 234 to 236 °C.
With `N#Cc1ccc2oc(-c3cc4ccccc4cn3)cc(=NO)c2c1` [Example 38, 6-cyano-2-isoquinolin-3-yl-chromen-4-one oxime], the melting point is 280 °C (dec.).
In the case of `CN(C)CCOc1ccc2oc(-c3cc4cccn4cn3)cc(=NO)c2c1.Cl`, the melting point is > 275 °C (dec.).
Compound `ON=c1cc(-c2cc3ccccc3cn2)oc2cc(-c3ccccc3)ccc12` [Example 47, 2-isoquinolin-3-yl-7-phenyl-chromen-4-one oxime] came in with a melting point of 275 to 278 °C.
Compound `ON=c1cc(-c2cc3ccccc3cn2)oc2c(Cl)cccc12` [Example 8, 8-chloro-2-isoquinolin-3-yl-chromen-4-one oxime] registered a melting point of 270 to 272 °C.
Then `ON=c1cc(-c2cc3c(Br)cccc3cn2)oc2ccccc12` [Example 17, 2-(5-bromo-isoquinolin-3-yl)-chromen-4-one oxime], with 268 to 270 °C; and `Cl.ON=c1cc(-c2cc3sccc3cn2)oc2ccc(OCCN3CCc4ccccc4C3)cc12`, with 234 to 237 °C.
